Experimental data taken from patent publication US12421211B2, “Heterocyclic compounds” (Hoffmann-La Roche Inc., priority 2021, dated 2025).
Where a name gives a salt, the structure may show the parent alone.

System: Acinetobacter baumannii ATCC17961
Test: Antimicrobial susceptibility testing: 90% growth inhibitory concentration (IC90) determination
Type: cell-based
Details: 90% growth inhibitory concentration, Acinetobacter baumannii ATCC17961, Iso-Sensitest broth, OD 600 nm over 16 h; read-out: ATCC 17961 IC90
Experimental: Assay Procedures Antimicrobial Susceptibility Testing: 90% Growth Inhibitory Concentration (IC90) Determination
The in vitro antimicrobial activity of the compounds was determined according to the following procedure:
The assay used a 10-points Iso-Sensitest broth medium to measure quantitatively the in vitro activity of the compounds against Acinetobacter baumannii ATCC17961.
Stock compounds in DMSO were serially twofold diluted (e.g. range from 50 to 0.097 μM final concentration) in 384 wells microtiter plates and inoculated with 49 μl the bacterial suspension in Iso-Sensitest medium to have a final cell concentration of ˜5×10^(5) CFU/ml in a final volume/well of 50 ul/well. Microtiter plates were incubated at 35±2° C.
Bacterial cell growth was determined with the measurement of optical density at λ=600 nm each 20 minutes over a time course of 16h. Growth inhibition was calculated during the logarithmic growth of the bacterial cells with determination of the concentration inhibiting 50% (IC50) and 90% (IC90) of the growth.
Table 1 provides the 90% growth inhibitory concentrations (IC90) in micromoles per liter of the compounds of present invention obtained against the strain Acinetobacter baumannii ATCC17961.

COCCn1cc(-c2ccc(-c3cnc(C(=O)Nc4ccc(C(=O)N5CCN(C(=O)C6[C@H]7C[N+](C)(C)C[C@@H]67)CC5)c(Cl)c4)n3C)c(F)c2F)c(C)n1 (stereo partly drawn) [Example B25, N-[3-chloro-4-[4-[(1R,5S)-3,3-dimethyl-3-azoniabicyclo[3.10]hexane-6-carbonyl]piperazine-1-carbonyl]phenyl]-5-[2,3-difluoro-4-[1-(2-methoxyethyl)-3-methyl-pyrazol-4-yl]phenyl]-1-methyl-imidazole-2-carboxamide; formate] showed an IC90 of 270 nM.

Same assay, conditions: Acinetobacter baumannii, ATCC17961, 16 h, 90% growth inhibitory concentration, Acinetobacter baumannii ATCC17961, Iso-Sensitest broth, OD 600 nm over 16 h; read-out: ATCC 17961 IC90

Compared with COCCn1ncc(-c2ccc(-c3cnc(C(=O)Nc4ccc(C(=O)N5CCC(C(=O)N6CC[N+](C)(CC(=O)O)CC6)CC5)c(Cl)c4)n3C)c(F)c2F)c1C [Example B13, 2-[4-[1-[2-chloro-4-[[5-[2,3-difluoro-4-[1-(2-methoxyethyl)-5-methyl-pyrazol-4-yl]phenyl]-1-methyl-imidazole-2-carbonyl]amino]benzoyl]piperidine-4-carbonyl]-1-methyl-piperazin-1-ium-l-yl]acetic acid; 2,2,2-trifluoroacetate], COCCn1ncc(-c2ccc(-c3cnc(C(=O)Nc4ccc(C(=O)N5CCC(C(=O)N6CC[N+](C)(CC(N)=O)CC6)CC5)c(Cl)c4)n3C)c(F)c2F)c1C [Example B15, N-[4-[4-[4-(2-amino-2-oxo-ethyl)-4-methyl-piperazin-4-ium-1-carbonyl]piperidine-1-carbonyl]-3-chloro-phenyl]-5-[2,3-difluoro-4-[1-(2-methoxyethyl)-5-methyl-pyrazol-4-yl]phenyl]-1-methyl-imidazole-2-carboxamide; formate] is 4.8-fold lower in IC90: 810 nM for the first, 170 nM for the second.

Compared with COCCn1ncc(-c2ccc(-c3cnc(C(=O)Nc4ccc(C(=O)N5CCN(C(=O)C6CC[N+](CC(=O)O)(CC7CNC7)CC6)CC5)c(Cl)c4)n3C)c(F)c2F)c1C (stereo not shown) [Example B20, 2-[1-(azetidin-3-ylmethyl)-4-[4-[2-chloro-4-[[5-[2,3-difluoro-4-[1-(2-methoxyethyl)-5-methyl-pyrazol-4-yl]phenyl]-1-methyl-imidazole-2-carbonyl]amino]benzoyl]piperazine-1-carbonyl]piperidin-1-ium-1-yl]acetic acid; formic acid; formate], COCCn1ncc(-c2ccc(-c3cnc(C(=O)Nc4ccc(C(=O)N5CCC(C(=O)N6CC[N+](CC(=O)O)(CC7CNC7)CC6)CC5)c(Cl)c4)n3C)c(F)c2F)c1C [Example B22, 2-[1-(azetidin-3-ylmethyl)-4-[1-[2-chloro-4-[[5-[2,3-difluoro-4-[1-(2-methoxyethyl)-5-methyl-pyrazol-4-yl]phenyl]-1-methyl-imidazole-2-carbonyl]amino]benzoyl]piperidine-4-carbonyl]piperazin-1-ium-1-yl]acetic acid; formate] is 1.5-fold higher in IC90: 220 nM for the first, 330 nM for the second.

COCCn1ncc(-c2ccc(-c3cnc(C(=O)Nc4ccc(C(=O)N5CCN(C(=O)C6CC[N+](C)(CC7CNC7)CC6)CC5)c(Cl)c4)n3C)c(F)c2F)c1C (stereo not shown) [Example B21, N-[4-[4-[1-(azetidin-3-ylmethyl)-1-methyl-piperidin-1-ium-4-carbonyl]piperazine-1-carbonyl]-3-chloro-phenyl]-5-[2,3-difluoro-4-[1-(2-methoxyethyl)-5-methyl-pyrazol-4-yl]phenyl]-1-methyl-imidazole-2-carboxamide; formic acid; formate] and COCCn1ncc(-c2ccc(-c3cnc(C(=O)Nc4ccc(C(=O)N5CCC(C(=O)N6CC[N+](C)(CC7CNC7)CC6)CC5)c(Cl)c4)n3C)c(F)c2F)c1C [Example B23, N-[4-[4-[4-(azetidin-3-ylmethyl)-4-methyl-piperazin-4-ium-1-carbonyl]piperidine-1-carbonyl]-3-chloro-phenyl]-5-[2,3-difluoro-4-[1-(2-methoxyethyl)-5-methyl-pyrazol-4-yl]phenyl]-1-methyl-imidazole-2-carboxamide; formate] are within 1.5-fold of each other in IC90: 100 nM for the first, 98 nM for the second.

COCCn1ncc(-c2ccc(-c3cnc(C(=O)Nc4ccc(C(=O)N5CCC(C(=O)N6CC[N+](CC(N)=O)(CC7CNC7)CC6)CC5)c(Cl)c4)n3C)c(F)c2F)c1C [Example B24, N-[4-[4-[4-(2-amino-2-oxo-ethyl)-4-(azetidin-3-ylmethyl)piperazin-4-ium-1-carbonyl]piperidine-1-carbonyl]-3-chloro-phenyl]-5-[2,3-difluoro-4-[1-(2-methoxyethyl)-5-methyl-pyrazol-4-yl]phenyl]-1-methyl-imidazole-2-carboxamide; 2,2,2-trifluoroacetate; 2,2,2-trifluoroacetic acid] and COCCn1ncc(-c2ccc(-c3cnc(C(=O)Nc4ccc(C(=O)N5CCN(C(=O)[C@H]6[C@@H]7C[N+](C)(C)C[C@@H]76)CC5)c(Cl)c4)n3C)c(F)c2F)c1C [Example B26, N-[3-chloro-4-[4-[(1R,5S)-3,3-dimethyl-3-azoniabicyclo[3.10]hexane-6-carbonyl]piperazine-1-carbonyl]phenyl]-5-[2,3-difluoro-4-[1-(2-methoxyethyl)-5-methyl-pyrazol-4-yl]phenyl]-1-methyl-imidazole-2-carboxamide; formate] are within 1.5-fold of each other in IC90: 95 nM for the first, 64 nM for the second.

In the case of COCCn1cc(-c2ccc(-c3cnc(C(=O)Nc4ccc(C(=O)N5CCN(C(=O)[C@@H]6C[C@@H](O)C[N+]6(C)CCCO)CC5)c(Cl)c4)n3C)c(F)c2F)c(C)n1 (stereo partly drawn) [Example B27, N-[3-chloro-4-[4-[(2S,4R)-4-hydroxy-1-(3-hydroxypropyl)-1-methyl-pyrrolidin-1-ium-2-carbonyl]piperazine-1-carbonyl]phenyl]-5-[2,3-difluoro-4-[1-(2-methoxyethyl)-3-methyl-pyrazol-4-yl]phenyl]-1-methyl-imidazole-2-carboxamide; iodide], the IC90 is reported as 240 nM.

Same assay, conditions: Acinetobacter baumannii, ATCC17961, 16 h, read-out: ATCC 17961 IC90

Compared with COCCn1nc(C)c(-c2ccc(-c3cnc(C(=O)Nc4ccc(C(=O)N5CCN(C(=O)C6CC[N+](C)(CCOC)CC6)CC5)c(Cl)c4)n3C)c(F)c2F)c1C (stereo not shown) [Example B9, N-[3-chloro-4-[4-[1-(2-methoxyethyl)-1-methyl-piperidin-1-ium-4-carbonyl]piperazine-1-carbonyl]phenyl]-5-[2,3-difluoro-4-[1-(2-methoxyethyl)-3,5-dimethyl-pyrazol-4-yl]phenyl]-1-methyl-imidazole-2-carboxamide; formate], COCCn1ncc(-c2ccc(-c3cnc(C(=O)Nc4ccc(C(=O)N5CCN(C(=O)C6CC[N+](C)(CCO)CC6)CC5)c(Cl)c4)n3C)c(F)c2F)c1C (stereo not shown) [Example B12, N-[3-chloro-4-[4-[1-(2-hydroxyethyl)-1-methyl-piperidin-1-ium-4-carbonyl]piperazine-1-carbonyl]phenyl]-5-[2,3-difluoro-4-[1-(2-methoxyethyl)-5-methyl-pyrazol-4-yl]phenyl]-1-methyl-imidazole-2-carboxamide; formate] is 4.6-fold lower in IC90: 510 nM for the first, 110 nM for the second.

COCCn1nc(C)c(-c2ccc(-c3cnc(C(=O)Nc4ccc(C(=O)N5CCN(C(=O)C6CC[N+](C)(CC(N)=O)CC6)CC5)c(Cl)c4)n3C)cc2)c1C (stereo not shown) [Example B10, N-[4-[4-[1-(2-amino-2-oxo-ethyl)-1-methyl-piperidin-1-ium-4-carbonyl]piperazine-1-carbonyl]-3-chloro-phenyl]-5-[4-[1-(2-methoxyethyl)-3,5-dimethyl-pyrazol-4-yl]phenyl]-1-methyl-imidazole-2-carboxamide; formate] and COCCn1nc(C)c(-c2ccc(-c3cnc(C(=O)Nc4ccc(C(=O)N5CCN(C(=O)C6CC[N+](C)(CCO)CC6)CC5)c(Cl)c4)n3C)cc2)c1C (stereo not shown) [Example B11, N-[3-chloro-4-[4-[1-(2-hydroxyethyl)-1-methyl-piperidin-1-ium-4-carbonyl]piperazine-1-carbonyl]phenyl]-5-[4-[1-(2-methoxyethyl)-3,5-dimethyl-pyrazol-4-yl]phenyl]-1-methyl-imidazole-2-carboxamide; formate] are within 1.5-fold of each other in IC90: 200 nM for the first, 170 nM for the second.

Going from COCCn1ncc(-c2ccc(-c3cnc(C(=O)Nc4ccc(C(=O)N5CCN(C(=O)C6CC[N+](C)(CC(=O)NN)CC6)CC5)c(Cl)c4)n3C)c(F)c2F)c1C (stereo not shown) [Example B17, N-[3-chloro-4-[4-[1-(2-hydrazino-2-oxo-ethyl)-1-methyl-piperidin-1-ium-4-carbonyl]piperazine-1-carbonyl]phenyl]-5-[2,3-difluoro-4-[1-(2-methoxyethyl)-5-methyl-pyrazol-4-yl]phenyl]-1-methyl-imidazole-2-carboxamide; formic acid; formate] to COCCn1cc(-c2ccc(-c3cnc(C(=O)Nc4ccc(C(=O)N5CCN(C(=O)C6CC[N+](CC(=O)O)(CC7CNC7)CC6)CC5)c(Cl)c4)n3C)c(F)c2F)c(C)n1 (stereo not shown) [Example B18, 2-[1-(azetidin-3-ylmethyl)-4-[4-[2-chloro-4-[[5-[2,3-difluoro-4-[1-(2-methoxyethyl)-3-methyl-pyrazol-4-yl]phenyl]-1-methyl-imidazole-2-carbonyl]amino]benzoyl]piperazine-1-carbonyl]piperidin-1-ium-1-yl]acetic acid; formic acid; formate], the IC90 rises from 260 nM to 430 nM (1.7-fold).
